Measurements reported in PMC10889159, “Synthesis and Antitumor Activity Evaluation of Novel Echinatin Derivatives with a 1,3,4-Oxadiazole Moiety” (International Journal of Molecular Sciences, 2024).

Tests used:
HT-29 = assay: CCK8 antiproliferative assay, HT-29; type: cell-based; conditions: Homo sapiens, CCK8, 48 h, mean ± SD, n = 3
Protocol: (§1) For all biological assays, all of the synthesized compounds were dissolved in DMSO. The cytotoxicity of all of the target compounds against the HCT116, K562, KU812, and HT-29 cells was determined by an CCK8 assay in vitro using adriamycin and echinatin as the controls. About 3000 cells per well were seeded in a 96-well plate and incubated for 24 h. Then, the cells were stimulated with different concentrations of test compounds for 48 h. The CCK8 solution (100 µL 0.5 mg/mL^−1) was added to each well, and the cells were incubated for another 4 h. Then, the absorbance of the samples was measured at 450 nm. The IC50 values were calculated according to the Logit method after obtaining the inhibitory rate. All experiments were repeated three times.

c-KIT = c-KIT (Homo sapiens, UniProt P10721); assay: Biochemical c-KIT activity assay (ADP-Glo); conditions: 20 μM ATP, read-out: IC50 for c-KIT inhibition
Sequence of c-KIT (P10721 26-976): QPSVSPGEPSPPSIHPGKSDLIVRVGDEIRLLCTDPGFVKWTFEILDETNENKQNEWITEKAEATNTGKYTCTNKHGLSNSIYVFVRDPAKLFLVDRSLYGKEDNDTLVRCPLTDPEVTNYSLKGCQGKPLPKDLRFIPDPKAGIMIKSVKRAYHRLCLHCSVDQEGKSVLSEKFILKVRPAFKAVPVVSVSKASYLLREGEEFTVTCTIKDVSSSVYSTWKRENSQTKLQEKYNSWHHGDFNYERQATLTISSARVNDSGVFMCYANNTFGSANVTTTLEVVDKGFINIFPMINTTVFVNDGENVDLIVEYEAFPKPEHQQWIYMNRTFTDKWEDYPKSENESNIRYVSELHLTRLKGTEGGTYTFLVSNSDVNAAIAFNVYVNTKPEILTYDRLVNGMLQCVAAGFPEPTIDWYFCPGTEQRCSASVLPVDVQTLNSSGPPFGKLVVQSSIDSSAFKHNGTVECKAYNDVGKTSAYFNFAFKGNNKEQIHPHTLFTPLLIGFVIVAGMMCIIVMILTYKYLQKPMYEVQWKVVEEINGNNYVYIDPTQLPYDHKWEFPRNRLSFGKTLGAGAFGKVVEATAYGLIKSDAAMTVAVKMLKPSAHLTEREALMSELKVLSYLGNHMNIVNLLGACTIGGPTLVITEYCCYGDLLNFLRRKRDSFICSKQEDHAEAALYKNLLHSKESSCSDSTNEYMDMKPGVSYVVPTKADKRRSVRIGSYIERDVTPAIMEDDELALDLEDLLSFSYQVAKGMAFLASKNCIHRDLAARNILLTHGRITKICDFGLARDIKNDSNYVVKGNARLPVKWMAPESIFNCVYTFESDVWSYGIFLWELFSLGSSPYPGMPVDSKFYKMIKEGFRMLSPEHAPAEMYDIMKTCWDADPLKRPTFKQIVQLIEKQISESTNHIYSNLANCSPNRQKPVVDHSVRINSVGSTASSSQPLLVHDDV
Protocol: The enzymatic activities of c-KIT were determined by in vitro kinase assays using the ADP-Glo reagent (Promega, Madison, WI, USA) according to the manufacturer’s instructions. Briefly, 250 ng of c-KIT protein was incubated with compounds in 10 μL of reaction buffer (40 mM Tris−HCl, pH 7.4, 2 mM MnCl2, 2 mM DTT, 20 mM MgCl2, 0.1 mg/mL bovine serum albumin, 1 mM Na3VO4) containing 20 μΜ ATP and 40 μM poly (Glu4-Tyr1) as substrates at 30 °C for 150 min. The ADP-Glo reagent was then added, and the mixture was incubated at 25 °C for 40 min. The kinase detection reagent was added for another 30 min at 25 °C. The converted ADP was determined by luminescence measurement using a Wallac Vector 1420 multilabel counter (PerkinElmer).

HCT116 cells [1] = assay: TUNEL staining; type: cell-based, human; conditions: varying concentrations
Protocol: The slides were immersed in 4% paraformaldehyde (pH 7.4) for 25 min at room temperature and then washed with PBS 3 times. The cells were immersed in 0.1% Triton X-100 solution prepared with PBS for 10 min (operation on ice) and then washed twice with PBS. Dilute 5× equilibration buffer with deionized water and 100 µL 1× equilibration buffer were added to each climbing tablet to cover the sample area to be tested, then incubated at room temperature for 15 min. […] The slides were placed in a wet box and incubated at 37 °C for 60 min. The wet box was wrapped with aluminum foil to avoid light. These were then washed three times with PBS with DAPI dripped and incubated in the dark for 5 min. The nucleus of the specimen was stained. Water-absorbent paper was used to absorb the liquid on the climbing sheet, then a sealing liquid containing an anti-fluorescence quenching agent was used to seal the film before the images were observed and collected under a fluorescence microscope.

HCT116 cells [2] = assay: Wound healing assay; type: cell-based, human; conditions: 24 h, serum-free medium
Protocol: Five lines were drawn evenly on the back of the 6-well plate and transferred HCT116 cells (1 × 10^6/well) in a 6-well plate until a uniform monolayer of cells formed at the bottom of the 6-well plate. Then, we drew lines on the cells using a 200 μL pipette tip. We then carefully washed the damaged cell monolayer with PBS, then treated with different concentrations of Compound T4, and incubated in serum-free medium for 24 h. We then used an inverted microscope to take photos of the 6-hole plate at the 0 and 24 h time points and used ImageJ for processing and analysis.

CCC-HIE-2 = assay: Cytotoxicity toward CCC-HIE-2 cells; type: cell-based, human
HCT116 cells [3] = assay: Cell colony formation assay; type: cell-based, human; conditions: 1.25, 2.5, 5 µM, 14 d
Protocol: To investigate the effects of echinatin derivatives on the clonogenic potential of HCT116 cells, the colony formation assay was performed as previously described. HCT116 cells were seeded into 6-well plates at 37 °C with 5% CO2 for 24 h and then treated with Compound T4 and echinatin at various concentrations (0 µM, 1.25 µM, 2.5 µM, and 5 µM) for 14 d. Then, cells were stained with crystal violet solution and clone numbers were counted directly with the naked eye.

HCT116 cells [4] = assay: Western blot of c-KIT downstream proteins and caspase-3; type: cell-based, human; conditions: 48 h
Protocol: HCT116 cells were seeded at a density of 4 × 10^5 cells per well and treated with various concentrations of Compound T4 (0, 1.25, 2.5, and 5 µM) for 48 h. After this, cells were collected and washed twice with ice-cold DPBS. The pellets were resuspended in a total protein extraction buffer (20 mM HEPES, 350 mM NaCl, 20% glycerol, 1% NP-40, 1 mM MgCl2, 0.5 mM EDTA, 0.1 mM EGTA, 0.1 mM DTT, 0.1 mM PMSF) containing a protease inhibitor cocktail and incubated on ice for 30 min with intermittent mixing. The protein concentration was measured using the Bradford reagent (Bio-Rad Laboratories Inc., Hercules, CA, USA). An equal amount (20 µg) of protein was loaded on 10% poly acrylamide gels and transferred to a nitrocellulose membrane. After blocking with 5% skimmed milk, the membrane was incubated at 4 °C overnight with specific primary antibodies. The membrane was washed and incubated at room temperature for 1 h with secondary antibodies conjugated with horseradish peroxidase (HRP). Finally, the immunoblot was developed for visualization using a chemiluminescence kit. Primary antibodies for Cleaved-caspase 3, MEK, p-MEK, Erk1/2, p-Erk1/2, mTOR, Akt, p-Akt, and GAPDH and all secondary antibodies were obtained from Santa Cruz Biotechnology (Santa Cruz, CA, USA).

K562 = assay: CCK8 antiproliferative assay, K562; type: cell-based; conditions: Homo sapiens, CCK8, 48 h, mean ± SD, n = 3
Protocol: as §1

KU812 = assay: CCK8 antiproliferative assay, KU812; type: cell-based; conditions: Homo sapiens, CCK8, 48 h, mean ± SD, n = 3
Protocol: as §1

[5] = system: four cancer cell lines (K562, KU812, HT-29, HCT116); assay: CCK8 antiproliferative assay, summary over the four cancer cell lines; type: cell-based; conditions: Homo sapiens; range over K562, KU812, HT-29, HCT116; read-out: IC50 against the four cancer cell lines
Protocol: as §1

HCT116 = assay: CCK8 antiproliferative assay, HCT116; type: cell-based; conditions: Homo sapiens, HCT-116; CCK8, 48 h, mean ± SD, n = 3
Protocol: as §1

HCT116 cells [6] = assay: Intracellular ROS generation (DCFH-DA, flow cytometry); type: cell-based, human; conditions: escalating concentrations
Protocol: Approximately 4 × 10^5 cells per well were seeded in a 6-well plate and incubated for 12 h, then the discarded medium was replaced with fresh medium containing different concentrations of Compound T4 (0 μM, 0.625 μM, 1.25 μM, 2.5 μM, and 5 μM) for 48 h. ROS production was detected by using the peroxide-sensitive fluorescent probe DCFH-DA. After treatment with different concentrations of T4, the cells were incubated with 10 µg/mL DCFH-DA at 37 °C for 20 min. Then, the cells were harvested. Samples were analyzed by flow cytometry (FACS Calibur, Becton-Dickinson, East Rutherford, NJ, USA).

HCT116 cells [7] = assay: Cell cycle analysis (PI staining, flow cytometry); type: cell-based, human
Protocol: The effects of Compound T4 on cell cycle progression were verified by using a standard (PI) staining procedure followed by flow cytometry analysis. HCT116 cells were seeded in 6-well plates and incubated for 24 h until the cells adhered. […] Control cells and treated cells were washed twice with PBS, centrifuged (1000 rpm, 5 min), and collected at a final concentration of 50,000 cells. Then, a single cell suspension was fixed in ice-cold 70% (v/v) ethanol overnight at 4 °C. The cells were washed again with PBS. A total of 100 μL RNase A was added and the cells were incubated at 37 °C for 30 min. The cell DNA was stained with 400 μL PI for 30 min. Data collection and analysis were carried out using a flow cytometer (Beckman Coulter cytoFLEX, USA).

- melting point: 180.5 to 181.4 °C
- IC50 (HT-29): 2.87 ± 0.32 µM
- IC50 (c-KIT): 0.178 µM
- IC50 (K562): 8.6 ± 0.61 µM
- IC50 [5]: 1.71 to 8.6 µM
- IC50 (HCT116): 1.71 ± 0.46 µM
Compound: COc1cc(O)ccc1/C=C/C(=O)c1ccc(OCc2nnc(Nc3ccc(C(F)(F)F)cc3)o2)cc1 [Compound T4, (E)-3-(4-Hydroxy-2-methoxyphenyl)-1-{4-{{5-{[4-(trifluoromethyl)phenyl]amino}-1,3,4-oxadiazol-2-yl}methoxy}phenyl}propenone]
- apoptotic cells (TUNEL red fluorescence) (HCT116 cells [1]): increase in apoptotic cells
- HCT116 cell migration (HCT116 cells [2]): strongly inhibited
- growth of CCC-HIE-2 cells (CCC-HIE-2): not significantly influenced
- SI (selectivity index) (CCC-HIE-2; CCC-HIE-2 vs HCT116): 16.1
- IC50 (CCC-HIE-2; human embryonic intestinal mucosal derived cell line): 27.6 ± 1.37 µM
- cell colony number (HCT116 cells [3]): decreased in a dose-dependent manner
- expression of the phosphorylated forms of Akt, MEK, Erk1/2, and mTOR (HCT116 cells [4]; 1.25, 2.5, 5 μM): significantly downregulated
- protein expression levels of Akt, MEK, and Erk1/2 (HCT116 cells [4]; 1.25, 2.5, 5 μM): not significantly altered
- expression of caspase-3, as a percentage of GAPDH (HCT116 cells [4]; upregulated from 24% following T4 treatment (0-5 μM)): 49%
- IC50 (KU812): 8.09 ± 0.91 µM
- generation and accumulation of ROS (HCT116 cells [6]): concentration-dependent generation and accumulation of ROS
- distribution of cell cycle phase (%): S (HCT116 cells [7]; 5 μM, 48 h (control 28.0%)): 16.8%
- distribution of cell cycle phase (%): G0/G1 (HCT116 cells [7]; 5 μM, 48 h (control 54.7%)): 65.1%
- cell cycle arrest (HCT116 cells [7]; various concentrations, 48 h): blocked the cell cycle in the G0/G1 phase
